Measured values reported in US20110040086A1, “Novel Beta-Lactam Antibiotics, Methods for Their Production, and Their Use” (DRITTE PATENTPORTFOLIO BETEILIGUNGSGESELLSCHAFT MB, priority 2007, published 2011).

Tests used:
[1] = test system: Enterococcus faecalis 769; assay: agar diffusion test (Test System II, multi-resistant germs); assay type: cell-based; design: key: r = resistant (no detectable zone of inhibition)
Procedure, shortened: (§1)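 Stepped amounts of each substance (10, 50, 100 μg) were applied to carrier discs from methanol or water according to solubility. These were laid on Müller-Hinton agar II inoculated at McFarland 0.5, and zones of inhibition were read following overnight incubation (18-20 h) at 37 °C.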

[2] = test system: Staphylococcus aureus 315; assay: as above; assay type: cell-based; design: key: r = resistant (no detectable zone of inhibition)
Procedure, shortened: as §1

[3] = test system: B. subtilis AWD 166; assay: agar diffusion test (antimicrobial effect); assay type: cell-based, Bacillus subtilis
Method: (§2) The seeding of bacteria in agar is selected so that, dense, but not confluent individual colonies develop after the incubation.
(§3) The inoculated nutrient agar is set in sterile Petri dishes and left standing for a few minutes for drying.
(§4) The test substances are deposited in stepped quantities (10 μg, 50 μg, 100 μg) onto active ingredient carriers (sensi-discs). For this purpose, the test substances are dissolved in methanol or A. dest. according to their solubility. Each inoculated plate is fitted with 3 test sheets.
(§5) After a 20-hour incubation time at 37° C., the zones of inhibition around the individual test sheets could be measured. The diameter of the zone of inhibition is specified in mm.

[4] = test system: Escherichia coli SBUG 1135; assay: agar diffusion test (Test System 1, antimicrobial effect); assay type: cell-based
Method: (§6) Test System 1 (Antimicrobial Effect)
(§7) The test germs Escherichia coli SBUG 1135 and Bacillus megaterium SBUG 1152 are drawn overnight (17 hours at 37° C.) in 5 ml nutrient medium II. The incubation is performed in a shaking incubator (INFORS AG CH 4103, Bottmingen, Switzerland) at a shaking frequency of 180 rpm.
(§8) After 17 h incubation time, Escherichia coli has reached a cell density of ca. 2.4×10^10 cells/ml and Bacillus megaterium a cell density of ca. 2.1×10^8 cells/ml.
as §2
Escherichia coli: the ÜN is diluted 1:100 with physiological saline solution, of which 0.1 ml is converted into 10 ml nutrient agar. That corresponds to a cell count of 10^6.
as §3, §4, §5

[5] = test system: S. epidermidis 125; assay: agar diffusion test (Test System II, multi-resistant germs); assay type: cell-based, Staphylococcus epidermidis
Procedure, shortened: as §1

[6] = test system: S. aureus 38418; assay: as above; assay type: cell-based, Staphylococcus aureus
Procedure, shortened: as §1

[7] = test system: S. aureus ATCC 6538; assay: as above; assay type: cell-based, Staphylococcus aureus
Procedure, shortened: as §1

[8] = test system: E. faecalis 945; assay: as above; assay type: cell-based, Enterococcus faecalis; design: key: r = resistant (no detectable zone of inhibition)
Method: as §4
Test System II (Effect Against Multi-Resistant Germs)
For this purpose, bacteria is cultivated on Müller-Hinton-Agar II plates.
With 1-1.5 ml physiological saline solution, a bacteria suspension of McFarland 0.5 (corresponds to a bacteria density of 150×10^6 germs) is produced. Then, with a sterile glass rod, a small drop of bacteria suspension is placed on the Müller-Hinton-Agar plate and coated in three layers (vertical, horizontal, and transverse). Thereafter, the sensi-discs with the novel semi-synthetic test substances are placed on top. The fitted plates are incubated for 18-20 hours at 37° C. After incubation, the diameters of the zones of inhibition are read as a measure for the antimicrobial activity of the novel semi-synthetic test substances.

[9] = test system: Bacillus megaterium SBUG 1152; assay: agar diffusion test (Test System 1, antimicrobial effect); assay type: cell-based
Method: as §6, §7, §8, §2
Bacillus megaterium: 0.1 ml of non-diluted overnight culture (ÜN) in 10 ml nutrient agar corresponds to a cell count of 10^6.
as §3, §4, §5

[10] = test system: S. aureus 526; assay: agar diffusion test (Test System II, multi-resistant germs); assay type: cell-based, Staphylococcus aureus; design: key: r = resistant (no detectable zone of inhibition)
Procedure, shortened: as §1

[11] = test system: S. aureus 33490; assay: as above; assay type: cell-based, Staphylococcus aureus; design: key: r = resistant (no detectable zone of inhibition)
Procedure, shortened: as §1

[12] = test system: S. aureus 520; assay: as above; assay type: cell-based, Staphylococcus aureus; design: key: r = resistant (no detectable zone of inhibition)
Procedure, shortened: as §1

[13] = test system: S. aureus 36881; assay: as above; assay type: cell-based, Staphylococcus aureus; design: key: r = resistant (no detectable zone of inhibition)
Procedure, shortened: as §1

[14] = test system: S. aureus 34289; assay: as above; assay type: cell-based, Staphylococcus aureus; design: key: r = resistant (no detectable zone of inhibition)
Procedure, shortened: as §1

[15] = test system: S. aureus North Germany strain; assay: as above; assay type: cell-based, Staphylococcus aureus; design: key: r = resistant (no detectable zone of inhibition)
Procedure, shortened: as §1

[16] = test system: S. aureus 39105; assay: as above; assay type: cell-based, Staphylococcus aureus; design: key: r = resistant (no detectable zone of inhibition)
Procedure, shortened: as §1

[17] = logP value by HPLC according to Donovan et al.; settings: HPLC with methanol/0.1% phosphoric acid gradient, pH 2
Method: • Operating temperature 18-24° C. • Flow 1.5 mL/min • Linear gradient (methanol/0.1% phosphoric acid pH 2) from 10% to 100% methanol in 9.4 min, equilibrium time between 2 runs 6 min
ca. 0.5 mg of analyte is added to 0.5 ml of a standard solution (440 mg methyl phenyl sulfonate and 380 μl toluene in 150 mL methanol). 2 μl of this sample solution is injected.
Because the distribution coefficients of the two standards running in each test are known, the distribution coefficient of the analytes can be determined from the relationships of the analyte/standard retention times.

[18] = test system: S. epidermidis 563; assay: agar diffusion test (Test System II, multi-resistant germs); assay type: cell-based, Staphylococcus epidermidis
Procedure, shortened: as §1

[19] = test system: S. epidermidis 1068; assay: as above; assay type: cell-based, Staphylococcus epidermidis
Procedure, shortened: as §1

[20] = test system: S. epidermidis 1071; assay: as above; assay type: cell-based, Staphylococcus epidermidis
Procedure, shortened: as §1

[21] = test system: S. epidermidis 847; assay: as above; assay type: cell-based, Staphylococcus epidermidis
Procedure, shortened: as §1

## CC1=C(C(=O)O)N2C(=O)[C@@H](NC(=O)[C@H](N)c3ccc(O)cc3)[C@H]2SC1 [2a, Cefadroxil, reference compound]
[1]; Quantity n 0.019
  Diameter of zone of inhibition: r
[1]; Quantity n 0.1
  Diameter of zone of inhibition: 10 mm
[1]; Quantity n 0.19
  Diameter of zone of inhibition: 14 mm
[2]; Quantity n 0.019
  Diameter of zone of inhibition: r
[2]; Quantity n 0.1
  Diameter of zone of inhibition: r
[2]; Quantity n 0.19
  Diameter of zone of inhibition: 8 mm
[3]; Quantity n 0.019
  Diameter of zone of inhibition: 36 mm
[3]; Quantity n 0.1
  Diameter of zone of inhibition: 38 mm
[3]; Quantity n 0.19
  Diameter of zone of inhibition: 40 mm
[4]; Quantity n 0.019
  Diameter of zone of inhibition: 18 mm
[4]; Quantity n 0.1
  Diameter of zone of inhibition: 22 mm
[4]; Quantity n 0.19
  Diameter of zone of inhibition: 26 mm
[5]; Quantity n 0.019
  Diameter of zone of inhibition: 26 mm
[5]; Quantity n 0.1
  Diameter of zone of inhibition: 36 mm
[5]; Quantity n 0.19
  Diameter of zone of inhibition: 40 mm
[6]; Quantity n [mol] 0.019
  Diameter of zone of inhibition: 30 mm
[6]; Quantity n [mol] 0.1
  Diameter of zone of inhibition: 34 mm
[6]; Quantity n [mol] 0.19
  Diameter of zone of inhibition: 38 mm
[7]; Quantity n 0.019
  Diameter of zone of inhibition: 32 mm
[7]; Quantity n 0.1
  Diameter of zone of inhibition: 38 mm
[7]; Quantity n 0.19
  Diameter of zone of inhibition: 40 mm
[8]; Quantity n 0.019
  Diameter of zone of inhibition: r
[8]; Quantity n 0.1
  Diameter of zone of inhibition: r
[8]; Quantity n 0.19
  Diameter of zone of inhibition: r
[9]; Quantity n 0.019
  Diameter of zone of inhibition: 36^1 mm
[9]; Quantity n 0.1
  Diameter of zone of inhibition: 38 mm
[9]; Quantity n 0.19
  Diameter of zone of inhibition: 40 mm
[10]; Quantity n 0.019
  Diameter of zone of inhibition: r
[10]; Quantity n 0.1
  Diameter of zone of inhibition: r
[10]; Quantity n 0.19
  Diameter of zone of inhibition: r
[11]; Quantity n [μmol] 0.019
  Diameter of zone of inhibition: 16 mm
[11]; Quantity n [μmol] 0.1
  Diameter of zone of inhibition: 24 mm
[11]; Quantity n [μmol] 0.19
  Diameter of zone of inhibition: 28 mm
[12]; Quantity n [mol] 0.019
  Diameter of zone of inhibition: r
[12]; Quantity n [mol] 0.1
  Diameter of zone of inhibition: r
[12]; Quantity n [mol] 0.19
  Diameter of zone of inhibition: 8 mm
[13]; Quantity n 0.019
  Diameter of zone of inhibition: r
[13]; Quantity n 0.1
  Diameter of zone of inhibition: 14 mm
[13]; Quantity n 0.19
  Diameter of zone of inhibition: 18 mm
[14]; Quantity n [mol] 0.019
  Diameter of zone of inhibition: r
[14]; Quantity n [mol] 0.1
  Diameter of zone of inhibition: r
[14]; Quantity n [mol] 0.19
  Diameter of zone of inhibition: r
[15]; Quantity n 0.019
  Diameter of zone of inhibition: r
[15]; Quantity n 0.1
  Diameter of zone of inhibition: r
[15]; Quantity n 0.19
  Diameter of zone of inhibition: 10 mm
[16]; Quantity n 0.019
  Diameter of zone of inhibition: 16 mm
[16]; Quantity n 0.1
  Diameter of zone of inhibition: 24 mm
[16]; Quantity n 0.19
  Diameter of zone of inhibition: 26 mm
[17]
  chromatographic logP: -3.5
[18]; Quantity n 0.019
  Diameter of zone of inhibition: 24 mm
[18]; Quantity n 0.1
  Diameter of zone of inhibition: 28 mm
[18]; Quantity n 0.19
  Diameter of zone of inhibition: 32 mm
[19]; Quantity n 0.019
  Diameter of zone of inhibition: 20 mm
[19]; Quantity n 0.1
  Diameter of zone of inhibition: 24 mm
[19]; Quantity n 0.19
  Diameter of zone of inhibition: 26 mm
[20]; Quantity n 0.019
  Diameter of zone of inhibition: 22 mm
[20]; Quantity n 0.1
  Diameter of zone of inhibition: 28 mm
[20]; Quantity n 0.19
  Diameter of zone of inhibition: 30 mm
[21]; Quantity n [mol] 0.019
  Diameter of zone of inhibition: 12 mm
[21]; Quantity n [mol] 0.1
  Diameter of zone of inhibition: 26 mm
[21]; Quantity n [mol] 0.19
  Diameter of zone of inhibition: 30 mm
